According to patent US7943748B2, “Glucitol derivative, prodrug thereof and salt thereof, and therapeutic agent containing the same for diabetes” (Chugai Seiyaku Kabushiki Kaisha, priority 2004, dated 2011):

Experiments:
[1] = molecular target: T1, human SGLT2 (Homo sapiens, UniProt P31639); assay: Inhibition of methyl-α-D-glucopyranoside intake in human SGLT2 stable expression CHO cells; format: cell-based; details: methyl-α-D-(U-14C)glucopyranoside intake, 37° C., 45 minutes
T1 construct: expressed in transfected cells; host or cells: CHO-K1
T1 sequence (P31639 1-672): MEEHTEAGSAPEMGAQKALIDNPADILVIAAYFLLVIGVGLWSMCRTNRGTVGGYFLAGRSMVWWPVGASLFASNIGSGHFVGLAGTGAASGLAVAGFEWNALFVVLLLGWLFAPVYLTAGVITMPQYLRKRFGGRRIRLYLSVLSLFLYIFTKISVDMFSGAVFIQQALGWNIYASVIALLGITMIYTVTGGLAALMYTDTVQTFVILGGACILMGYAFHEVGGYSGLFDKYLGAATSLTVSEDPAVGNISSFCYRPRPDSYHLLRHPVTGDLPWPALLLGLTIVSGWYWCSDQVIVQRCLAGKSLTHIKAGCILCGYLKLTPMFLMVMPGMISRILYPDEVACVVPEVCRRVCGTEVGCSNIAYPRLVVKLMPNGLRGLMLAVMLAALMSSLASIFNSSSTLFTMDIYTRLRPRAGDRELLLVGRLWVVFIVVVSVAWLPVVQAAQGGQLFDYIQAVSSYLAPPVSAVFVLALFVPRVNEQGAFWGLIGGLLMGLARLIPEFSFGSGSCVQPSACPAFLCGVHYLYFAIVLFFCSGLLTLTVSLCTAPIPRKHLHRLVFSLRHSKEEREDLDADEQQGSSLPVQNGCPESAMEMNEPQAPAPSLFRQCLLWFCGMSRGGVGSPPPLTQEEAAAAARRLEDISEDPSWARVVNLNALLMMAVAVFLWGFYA
Protocol: Test for Confirming Action of Inhibiting Human Na^+-Glucose Co-Transporters (SGLT1 and SGLT2)
(2) Preparation of Human SGLT2 Expression Vector
PCR was performed by KOD+DNA polymerase by taking a human kidney-derived cDNA library (a product of Clontech) as a template with the use of a synthesized DNA primer to amplify human SGLT2 cDNA. […] From the proliferated E. coli, a plasmid was purified according to the usual way. By taking this plasmid as a template, PCR was performed by KOD+DNA polymerase with the use of a synthetic DNA primer into which restriction enzyme recognition sites had been introduced to amplify human SGLT2 cDNA (a fragment added with Xho I recognition site on the upstream side and a Hind III recognition site on the downstream side). This amplified fragment was subjected to Xho I and Hind III digestion to connect the digested fragments to their recognition sites of the expression vector pcDNA 3.1(−) with the use of the Rapid DNA Ligation kit. The connected expression vector was introduced into E. coli competent cells (DH5α) and proliferated in an ampicillin-containing LB medium to obtain a human SGLT2 expression vector according to the usual way.
(3) Preparation of Human SGLT1 Stable Expression Cell and Human SGLT2 Stable Expression Cell […]

[2] = Test for determining blood half-life in rat; format: in vivo; details: iv; SD male rat, intravenously administered, dosage 10 mg/kg, plasma, LC-MS/MS, non-compartmental analysis, half-life in the final layer
Protocol: Test for Determining Blood Half-Life in Rat
A test compound was intravenously administered to a SD male rat (8-weeks old, Japan SLC) and the blood was collected 2 minutes, 5 minutes, 15 minutes, 30 minutes, 1 hour, 2 hours, 4 hours, 6 hours and 8 hours after administration, respectively. The obtained blood was centrifuged to obtain plasma. The plasma sample (0.01 mL) and water (0.4 mL) were added to a tube added with an internal standard substance of phenyloin (250 ng), and diethyl ether (2 mL) was added thereto and the obtained solution was stirred for five minutes, and then centrifuged for 10 minutes and an organic layer was recovered and subjected to nitrogen dryness, and a mobile phase was added to the obtained solid to dissolve it and the resulting solution was taken as a sample for determination.
The sample for determination was injected into LC-MS/MS and determined under the following conditions. • Column: ODS (2.0×150 mm) • Mobile Phase Acetonitrile/10 mM ammonium acetate=4/6 (v/v) • Flow Rate: 0.2 mL/min • Amount of Sample Injected: 10 μL • Mass Analysis: ESI (+)
The plasma concentration obtained by the LC-MS/MS method was subjected to non-compartmental analysis with the use of the WinNonlin standard made by Pharsight Corporation to calculate pharmacokinetic parameters.

Row | IC50 [1] [nM] | half-life [2] [min] | Compound
1 | 18 | 493 | OC[C@H]1O[C@@H](c2cc(Cc3cc4ccccc4s3)cc3ccccc23)[C@H](O)[C@@H](O)[C@@H]1O [Example 1, (2S,3R,4R,5S,6R)-2-[3-(Benzo[b]thiophen-2-ylmethyl)-naphthalen-1-yl]-6-hydroxymethyl-tetrahydropyran-3,4,5-triol]
2 | 18 | – | Cc1ccc(Cc2cc([C@@H]3O[C@H](CO)[C@@H](O)[C@H](O)[C@H]3O)c3ccccc3c2)s1 [Example 8, (2R,3S,4R,5R,6S)-2-hydroxymethyl-6-[3-(5-methylthiophen-2-ylmethyl)naphthalen-1-yl]tetrahydropyran-3,4,5-triol]
